Consider 4 compounds from publication PMC10126473 (Frontiers in Pharmacology, 2023).

SMILES strings stand for the structures. ≈ marks a conversion by molar mass, not a printed value. Where “and” joins values, the source holds several entries; their conditions need not be identical. Identical values can stand only once. Like-named read-outs stand apart in the source and are kept apart here. Marks after values point to notes of the source that are not given here.

The nature of one data set: physchem. Particulars: pH 7.4, aqueous buffer, kinetic from dmso stock. As for the experimental part:
Samples were incubated at room temperature for 6 h and vacuum-filtered using Tecan Te-Vac to remove any precipitates. The concentration of the compound in the filtrate was measured via UV absorbance (λ: 250–498 nm). […] All compounds were tested in duplicates. The kinetic solubility (µg/mL) of compounds was calculated using the µSOL Evolution software.

The conditions of data set [1]: rat, in vivo, cited from earlier work.
For data set [2] the following is noted: human; cited from earlier work.
For data set [3] the following is noted: rats, acute toxicity test; ref Andrews et al., 1982; cited from earlier work.
The conditions of data set [4]: mouse, pH 7.4.
Description: (§7) The incubation was carried out at 37°C for 15, 30, and 60 min. The reaction in plasma or liver microsomes was quenched by adding 200 μL of cold acetonitrile (containing 100 ng/mL tolbutamide as internal standard).
(§8) The mc was the microsome concentration used in the incubation (0.5 mg/mL). The substrate disappearance half-life (t1/2) was estimated by regression analysis of the semi-logarithmic (ln Conc vs. time) plots. […] The Vmax, in vitro,app, PDN-total and Km for PDN depletion in liver microsomes were estimated by the Michaelis-Menten model using GraphPad Prism version 8.
The nature of data set [5]: in vivo. Particulars: hamster, in vivo. As for the experimental part: For the IV group, a single bolus IV dose of 3 mg/kg of PDN was administered to 24 hamsters (3 hamsters per time point). For the PO group, a dose of 30 mg/kg of PDN was administered via oral gavage to 21 hamsters (3 hamsters per time point). The formulation used for both IV and PO was 20% HP-β-CD in water (0.6 mg/mL PDN for IV and 3 mg/mL for PO). All dosing solutions were freshly prepared on the day of dosing. […] After collection, tissues were weighed and frozen. All blood samples were centrifuged at 4°C to obtain plasma. Plasma samples were transferred to tubes preloaded with NaF (final concentration at 5 mM in 200 µL plasma) and stored at −80°C until analysis.
(§1) For fat tissue, an additional 3-fold volume of acetonitrile was added to the water homogenate and was vortexed in a shaker for another 30 min.
(§2) A 10 μ aliquot of samples, blank controls (blank plasma or tissue homogenates), quality controls (QC), and standards were added into 200 μ acetonitrile solution with 100 ng/mL tolbutamide (internal standard, IS). All samples were then thoroughly shaken for 5 min to precipitate proteins. The samples were centrifuged at 3000 rpm and 4°C for 30 min. The supernatant was injected for UPLC-MS/MS analysis.
(§3) The mobile phase consisted of 0.1% formic acid in water (A) and 0.1% formic acid in acetonitrile (B), the flow rate was 600 μL/min. […] All analyses were carried out using a Waters Acquity I-Class UPLC interfaced with a Waters Xevo TQ-S mass spectrometer. The mass spectrometer multiple reaction monitoring (MRM) experiment was operated with an ESI source at negative mode with spray voltage of 1 kV, and temperature of 600°C. Both Q1 and Q3 were set at unit resolution. […] The correlation coefficients of the calibration curves were all greater than 0.99. […] The linear range, precision and accuracy of QCs in various tissues and plasma are shown in Supplementary Table S1 and Supplementary Table S2.
(§4) The area under the concentration vs. time curve (AUC) was calculated using the linear trapezoidal method. The terminal rate constant (λ) was obtained from the slope of at least three data points of the apparent terminal phase of the log linear concentration vs. time curve. AUC0–∞ was estimated as the sum of the AUC0–t (where t is the time of the last measurable concentration) and Ct/λ. […] Bioavailability (F) was calculated using ratios of dose-normalized AUC of PO and IV administration.

For data set [6] the following is noted: cited from earlier work.
The subject of another data set is UGT enzymes. The note with it: cited from earlier work.
For data set [7] the following is noted: cited from earlier work. This is another data set of the same source.
Data set [8] can be described thus: PBPK model (GastroPlus): simulation and model parameters incl. permeability surface product and scaled metabolic kinetics, hamster. The note with it: conversion to Others. As for the experimental part: (§5) CL in vitro,app expressed as mL/min/mg microsomes were scaled to the predicted CLintrinsic using scaling factor (SF), microsome level and liver weight as indicated below: CLintrinsic=CLin vitro,app×SF×liver weight×microsome level per gram liver
(§6) All modeling and simulation were carried out using GastroPlus version 9.5 (Simulations Plus Inc., CA). Physiochemical parameters including blood-to-plasma ratio (Rbp), pKa, and logP were predicted by ADMET predictor (Simulations Plus Inc., CA). Physiologies of all species, including organ weights, volumes, tissue compositions, and blood perfusion rates, were generated by the program’s internal module. Tissue intracellular unbound fractions were generated by GastroPlus based on predicted or experimentally determined physiochemical and chemical-biological parameters including pKa, logP, plasma unbound fractions (Fup), Rbp, solubility, and PAMPA permeability. The PBPK model structure is illustrated in Figure 2 and its parameters are summarized in Supplementary Tables S3–6. The default absorption and dissolution model was applied and effective intestine permeability was predicted by a built-in correlation from the experimental PAMPA permeability result. Parameters including partition coefficients in tissue (Kp), CLintrinsic, and permeability surface area product (PStc) were estimated by fitting the model to experimental data using the optimization module in GastroPlus with objective function weights at 1/(y + ŷ)^2, where y is the observed value and ŷ is the predicted value.
Experimental measurements of hamster plasma pharmacokinetics and lung concentrations were used in the model validation.

Data set [9] is described as follows: in vivo. Particulars: male, C57BL/6, mouse, in vivo. The method, then:
The in-life study (Animal Study Protocol Number: NIH ORS-51) was conducted at the NIH Animal Facility by the Division of Veterinary Resources (DVR, Bethesda, MD). In this study, 25–35 g male C57BL/6 mice (Charles River Laboratories, Frederick, MD) were used. For the IV groups, 66 mice (33 mice per dosing group, 3 mice per timepoint) were used for a single bolus IV dose of 3 or 10 mg/kg of PDN via tail vein injection. […] The IV and PO doses were selected to obtain a complete concentration profile in plasma and tissues, based on a preliminary study. Animals were not fasted in this study. […] All dosing solutions were freshly prepared on the day of dosing. At designated time points, blood samples were collected, and mice were euthanized with CO2 in accordance with NIH ARAC Guidelines after blood collection. The death was ensured by cervical dislocation or transthoracic puncture. Lung, liver, adipose, brain, heart, small intestine, kidney, skeletal muscle, and spleen samples were obtained from mice. […] Tissue samples were rinsed with cold saline, dried on filtrate paper, weighed, and snap frozen by placing into dry ice after collection. All samples were stored at −80°C until the analysis. All blood samples were collected in K2EDTA tubes and centrifuged at 3000 g for 10 min at 4°C to obtain plasma. Plasma samples were transferred to tubes preloaded with NaF (final concentration at 5 mM in 200 µL plasma) and stored at −80°C until analysis.
as §1, §2, §3, §4

Data set [10] can be described thus: PBPK model (GastroPlus): simulation and model parameters incl. permeability surface product and scaled metabolic kinetics, mouse. Particulars: conversion to Others. As for the experimental part:
as §5, §6
Model parameter estimation of all plasma-tissue partition coefficients (Kp) was performed simultaneously using both the IV and PO datasets. […] The experimentally determined pharmacokinetic profiles were compared with the model simulations.

The conditions of data set [11]: dog, in vivo; cited from earlier work.
For data set [12] the following is noted: human, in vivo, po, cited from earlier work.
The nature of data set [13]: PBPK model (GastroPlus): simulation and model parameters incl. permeability surface product and scaled metabolic kinetics, human. The note with it: conversion to Others.
The conditions of data set [14]: hamster, pH 7.4.
Description: as §7, §8
For data set [15] the following is noted: human, pH 7.4.
Description: as §7, §8
The next data set can be described thus: in vitro. The note with it: PAMPA, pH 7.4. The method, then: The test samples (0.05 mM test article in pH 7.4 buffer with 0.5% DMSO) were added in the donor compartment and were stirred using the Gutbox technology (Pion Inc.) to reduce the aqueous boundary layer. The test article concentrations in the donor and acceptor compartments were measured using a UV plate reader (Nano Quant, Infinite 200 PRO, Tecan Inc., Männedorf, Switzerland).

Where [16] appears, read: male, LVG golden Syrian, po, 30 mg/kg.
[17] abbreviates: in vivo, predicted from in vitro liver parameters.

Regarding `CCCSc1ccc2nc(NC(=O)OC)[nH]c2c1` [Albendazole, reference compound], the solubility in “physchem” was below 1 µg/mL.

As for `O=C(Nc1ccc([N+](=O)[O-])cc1Cl)c1cc(Cl)ccc1O` [Nc, Niclosamide, reference compound], the results for the oral bioavailability in data set [1] (po) and in data set [11] were 5.5% and 0.54%, respectively. In addition, the volume of distribution entry in data set [1] is “less than 0.4 L/kg”. For the same compound, the “Fup (unbound fraction in plasma)” value was 0.16% (human) ^b in [2] and 0.14% (rodent) ^b in data set [7]. Besides, the “oral LD50” value in data set [3] is recorded as above 5000 mg/kg. The “Liver Vmax” value in [4] is on record as 0.07474 mg/s/mg microsomes; in data set [8] (in vivo (scaled)), 0.1463 mg/s/mg microsomes; in data set [10] (in vivo (scaled)), 0.0949 mg/s/mg microsomes; in data set [13] (in vivo (scaled)) it was 0.0738 mg/s/mg microsomes; in data set [14] it was 0.1152 mg/s/mg microsomes; in [15] it was 0.0581 mg/s/mg microsomes. Besides, the “AUC0-∞ Observed” value in “in vivo [5]” (iv, 3 mg/kg) is on record as 1030 (98) h*ng/g; in “in vivo [5]” (po, 30 mg/kg) it was 5020 (294) h*ng/g. Further, the AUC(0-inf) in “in vivo [5]” (male, LVG golden Syrian, iv, 3 mg/kg) was found to be 203 ng·h/mL; in “in vivo [5]” (setting [16]), 1890 ng·h/mL; in “in vivo [9]” (iv, 3 mg/kg) it was 577 ng·h/mL; in the data set “in vivo [9]” (iv, 10 mg/kg), 1390 ng·h/mL; in “in vivo [9]” (po, 10 mg/kg), 1610 ng·h/mL. Also, the maximum concentration (Cmax) in “in vivo [5]” (setting [16]) is 1170 ng/g and 623 ng/mL; in “in vivo [9]” (po, 10 mg/kg) it was 346 ng/mL. Further, in the data set “in vivo [5]” (setting [16]), the “dose normalized plasma AUC0-∞ of Nc” value was 88 (h*ng/mL)/(mg/kg). The Tmax in “in vivo [5]” (male, LVG golden Syrian, po, 30 mg/kg, Tmax Observed) stood at 1 h. This compound gave a half-life in “in vivo [5]” (male, LVG golden Syrian, po, 30 mg/kg, t1/2 Observed) of around 1.9 h. Further, the PAMPA permeability in [6] is <1 ^b 10^−6 cm/s. For the same compound, the Km in the data set on UGT enzymes was 0.09 to 1.67 µM. Moreover, the “UGT-mediated hepatic CL in vitro,app” value in the data set with UGT enzymes (mouse) is 0.18-0.21 mL/min/mg microsomes. In data set [7], the plasma protein binding is recorded as above 99.8%. Moreover, the entries for the “Gut Vmax” value in [8] (setting [17]), in data set [10] (setting [17]) and in data set [13] (setting [17]) were 0.0629 mg/s/mg microsomes, 0.0408 mg/s/mg microsomes and 0.0317 mg/s/mg microsomes, respectively. The “dose-normalized AUC0-∞ of Nc” value in the data set “in vivo [9]” (po, 10 mg/kg) is listed as 216 (h*ng/mL)/(mg/kg). Besides, the “plasma Cmax” value in data set [12] (500 mg) was 35.7 to 182 ng/mL. Further, the “serum maximal concentration (Cmax), Nc equivalent” value in data set [12] (2000 mg) was 250 to 6000 ng/mL. The “median plasma Cmax” value in data set [12] is 665 ng/mL.

`Nc1ccc(/N=N/c2ccccc2)c(N)n1` [Phenazolpyridine, reference compound]: the solubility in the data set “physchem” stood at 26 µg/mL (≈ 122 µM).

In the data set “in vitro”, `CNC(=C[N+](=O)[O-])NCCSCc1ccc(CN(C)C)o1` [Ranitidine, reference compound] came in with an apparent permeability (Papp) at 0.05 mM below 1 ×10⁻⁶ cm/s.
